Data published in patent publication US20040029208A1, “Assay method and kit for testing biological material for exposure to stress using biomarkers” (priority 2000, published 2004).

Legend:
[1] = test system: all tested plants; experiment: Most frequent TLC biomarker pattern of all tested plants; assay type: in vivo; conditions: stability experiments
Text: By th term “standard biomarker pattern” is m ant a patternd of the composition of compounds present in a plant after exposure to known stress factors. According to th invention th biomarker pattern of the unknown compounds, i.e. the above described biomarker pattern, is correlated to a standard biomarker pattern, also referred to as a “most frequent pattern”. In order to interpret the biomarker patterns of test material that has been exposed to unknown stress factors, it is a prerequisite to provide standard biomarker patterns, i.e. most frequent patterns. By the latter is meant the same type of biomarker pattern obtained after exposure to a stress factor in more than 50% of the cases of exposure, such as 60%, for example 70%, such as 80%, for example 90%. The biomarker patterns of test material that has been exposed to unknown stress factors may then be correlated to standard biomarker patterns. The standard biomarker pattern may be obtained for one particular stress factor or for a combination of at least two different stress factors.
The study was performed in greenhouse between August and December 1998 for all species. Degree days (=(Present temperature in ° C.-5° C.)×amount of days) were used as time scale. […] Before the harvest, the plants were evaluated for visual effects using the rating chart described in Table 1 (Hamit et al., 1977). […]

[2] = test system: white birch seedlings; conditions: within 24h of application, even at 1% of field rate; cited from earlier work
[3] = test system: Bellis perennis; experiment: TLC phytochemical changes after Roundup Bio (sensitivity); assay type: in vivo
Text: (§1) Glyphosate (Roundup Bio (360 g L1:) was supplied by Monsanto Denmark ANS. Recommended field dose =1,44 kg a.i. ha^−1. In all the experiments, an automatic sprayer (designed in Denmark by Jens Kristensen 1994) was used where the herbicide application is achieved by moving boom equipment with two ordinary hydraulic flat fan nozzles (Hardl 4110-16). Two pots per spray event were placed in the middle of the spray chamber at 50 cm distance from the nozzle, delivering 200 L of water per hectare with a desired herbicide concentration (working pressure 2 bars; speed of spray boom=4.7 km h^1). The spraying was performed starting with the lowest concentration first, progressing towards the highest concentration. Between each herbicide, the sprayer was thoroughly rinsed several times with water. The control plants were sprayed with water.
(§2) The study was performed in greenhouse between August and December 1998 for all species. Degree days (=(Present temperature in ° C.-5° C.)×amount of days) were used as time scale. The plants were 226-378 degree days (30 days) old before exposure. The plants were exposed to 0, 1. 10 and 100% of the recommended field dose of Roundup Bio. Before the harvest, the plants were evaluated for visual effects using the rating chart described in Table 1 (Hamit et al., 1977). A rating of zero indicates full growth and vigour (compared with control plants) and a rating of nine, no growth/mortality. The plants were all harvested 180 degree days (14 days) after exposure. The plants were lyophilizied and k pt dry and in dark before phytochemical analysis.
(§3) 250 mg lyophilized plant material was crushed and extracted with 5.00 ml 75% ethanol in water in ultrasonic bath for two hours. Ice was added to the bath every 30 minutes to keep the temperature constant during the extraction. The extracts wer transferred to vials and centrifuged (3000 g per min.) for 10 minut s. The extract was immediately used for phytochemical analysis.
(§4) Frozen or fresh plant material was pressed for plant sap using a hand press. The sap was transferred to vials and centrifuged (3000 g per min.) for 10 minutes. The extract was immediately used for phytochemical analysis.
(§5) Rf-values (defined as, Rf-value=Distance of spot centre from start point/Distance of solvent front from start point (Stahl, 1969)) were determined for all phytochemical compounds.
(§6) In table 2 the sensitivity of the different plant species to Roundup Bio is presented. The sensitivity of the plant species was evaluated on basis of the presence of the most frequent pattern, the lowest concentration of exposure, and the visual effect of the exposed plants. In table 2, the plant species are divided into three groups: Group I: Very sensitive plant species; Group II: Medium sensitive plant species, and Group III: Less sensitive plant species. In Group I, a phytochemical pattern was present in plants exposed to 1% of the recommended field dose of Roundup Bio with a visual effect from 0 to 4. In Group II, a phytochemical pattern was found in plants exposed to 1 to 10% of the recommended field dose of the herbicide with a visual effect from 0 to 5. Finally, Group III presents plant species containing a phytochemical pattern after exposure of 10% of the recommended field dose with a visual effect from 5 to 7.
(§7) Table 2: Sensitivity of plants exposed to glyphosate (Roundup Bio), based on presence of phytochemical changes in all the TLC-Systems at lowest dose of concentration (LC) of the herbicide in percent of field dose. The corresponding visual effect (VE) Is presented (see table 1).

[4] = test system: Sinapis avensis; experiment: as above; assay type: in vivo
Text: as §1, §2, §3, §4, §5, §6, §7

[5] = test system: Mentha spicata; experiment: as above; assay type: in vivo
Text: as §1, §2, §3, §4, §5, §6, §7

[6] = test system: Rumex crispus; experiment: as above; assay type: in vivo
Text: as §1, §2, §3, §4, §5, §6, §7

[7] = test system: Papaver rhoeas; experiment: as above; assay type: in vivo
Text: as §1, §2, §3, §4, §5, §6, §7

[8] = test system: Leonorus carica; experiment: as above; assay type: in vivo
Text: as §1, §2, §3, §4, §5, §6, §7

[9] = test system: Nepeta cataria; experiment: as above; assay type: in vivo
Text: as §1, §2, §3, §4, §5, §6, §7

[10] = test system: Fallopia convolvulus; experiment: as above; assay type: in vivo
Text: as §1, §2, §3, §4, §5, §6, §7

[11] = test system: Rudbeckia hirta; experiment: as above; assay type: in vivo
Text: as §1, §2, §3, §4, §5, §6, §7

[12] = test system: Centauréa cýanus; experiment: Visual effect rating (0-9) after herbicide spraying; assay type: in vivo
Text: (§8) Four, eight, sixteen and thirty two days after spraying, visual effects on plants were noted before harvest, using the rating chart described in Hamil. et al. (1977) and Boutin et al. (1993); a rating of zero indicates full growth and vigour, and a rating of nine indicates no growth/mortality.
(§9) The min. visual effect (VE) of the presence of plant biomarkers is rated as described by Hamil et al., (1977) and Boutin et al. (1993).

[13] = test system: Plantágo lanceoláta; experiment: as above; assay type: in vivo
Text: as §8, §9

Structure (SMILES): O=C(O)CNCP(=O)(O)O [Glyphosate]
- time after exposure at which phytochemical changes were seen ([1]; 60 degree days): 4 days
- time after exposure up to which a phytochemical pattern was present ([1]; 480 degree days): up to 32 days
- increase of shikimic acid levels [2]: 10 fold
- LC: lowest dose of concentration of the herbicide with phytochemical changes in all the TLC-Systems [3]: 10% of field dose
- LC: lowest dose of concentration of the herbicide with phytochemical changes in all the TLC-Systems [4]: 10% of field dose
- LC: lowest dose of concentration of the herbicide with phytochemical changes in all the TLC-Systems [5]: 10% of field dose
- LC: lowest dose of concentration of the herbicide with phytochemical changes in all the TLC-Systems [6]: 1% of field dose
- LC: lowest dose of concentration of the herbicide with phytochemical changes in all the TLC-Systems [7]: 1% of field dose
- LC: lowest dose of concentration of the herbicide with phytochemical changes in all the TLC-Systems [8]: 10% of field dose
- LC: lowest dose of concentration of the herbicide with phytochemical changes in all the TLC-Systems [9]: 10% of field dose
- LC: lowest dose of concentration of the herbicide with phytochemical changes in all the TLC-Systems [10]: 1% of field dose
- LC: lowest dose of concentration of the herbicide with phytochemical changes in all the TLC-Systems [11]: 1% of field dose
- Min. visual effect ([12]; at presence of TLC 1 biomarker): 3
- Min. visual effect ([12]; at presence of TLC 6 biomarker): 3
- Min. visual effect ([12]; at presence of TLC 7 biomarker): 3
- Min. visual effect ([13]; at presence of TLC 1 biomarker): 0
- Min. visual effect ([13]; at presence of TLC 6 biomarker): 4
